The source made the active and inactive calls.
Legend:
Assay type in all cases: functional, organism-based
Conditions in all cases: Severe acute respiratory syndrome coronavirus 2, time 73.0 hrs
SARS-CoV-2 [1] = experiment: Antiviral activity against SARS-CoV-2 variant Omicron BA.5 infected African green monkey Vero E6 cells assessed as reduction in virus-induced cytopathic effect preincubated with virus for 1 hr followed by infection with cells and measured after 72 hrs by microscopic analysis
SARS-CoV-2 [2] = experiment: Antiviral activity against SARS-CoV-2 variant Omicron BA.1 infected in African green monkey Vero E6 cells assessed as reduction in virus-induced cytopathic effect preincubated with virus for 1 hr followed by infection with cells and measured after 72 hrs by microscopic analysis
SARS-CoV-2 [3] = experiment: Antiviral activity against SARS-CoV-2 variant Omicron BA.3 infected African green monkey Vero E6 cells assessed as reduction in virus-induced cytopathic effect preincubated with virus for 1 hr followed by infection with cells and measured after 72 hrs by microscopic analysis
SARS-CoV-2 [4] = experiment: Antiviral activity against SARS-CoV-2 variant Omicron BA.4 infected African green monkey Vero E6 cells assessed as reduction in virus-induced cytopathic effect preincubated with virus for 1 hr followed by infection with cells and measured after 72 hrs by microscopic analysis
SARS-CoV-2 [5] = experiment: Antiviral activity against SARS-CoV-2 variant Omicron BA.2 infected in African green monkey Vero E6 cells assessed as reduction in virus-induced cytopathic effect preincubated with virus for 1 hr followed by infection with cells and measured after 72 hrs by microscopic analysis
SARS-CoV-2 [6] = experiment: Antiviral activity against SARS-CoV-2 variant Delta infected in African green monkey Vero E6 cells assessed as reduction in virus-induced cytopathic effect preincubated with virus for 1 hr followed by infection with cells and measured after 72 hrs by microscopic analysis

Measured: Activity

CCCCCc1cc(O)c(C/C=C(\C)CCC=C(C)C)c(O)c1 [CANNABIGEROL]
inactive: all assays above

CCCCCc1cc(O)c(C/C=C(\C)CCC=C(C)C)c(O)c1C(=O)O [CANNABIGEROLIC ACID]
inactive: all assays above

CCCc1cc(O)c(C/C=C(\C)CCC=C(C)C)c(O)c1
inactive: all assays above

C=C(C)[C@@H]1CCC(C)=C[C@H]1c1c(O)cc(CCCCC)cc1O [CANNABIDIOL]
inactive: all assays above

C=C(C)[C@@H]1CCC(C)=C[C@H]1c1c(O)cc(CCC)cc1O [CANNABIDIVARIN]
inactive: all assays above

CCCCCc1cc(O)c2c(c1)OC(C)(CCC=C(C)C)C=C2 (stereo unspecified) [CANNABICHROMENE]
inactive: all assays above

From ChEMBL document CHEMBL5321262, “Antiviral Activity of Cannabidiolic Acid and Its Methyl Ester against SARS-CoV-2” (J Nat Prod, 2023)
